The target of one assay is hNET (Homo sapiens (Human), UniProt P23975). Put plainly: NET radioligand binding assay ([3H]nisoxetine, HEK-293 membranes). The conditions noted are these: (+)-enantiomers. The method, then: (§1) Recombinant HEK-293 cells expressing either the hSERT, hDAT, or hNET proteins were harvested from T-175 flasks as follows. The medium was removed from the flasks and the cells rinsed with HBSS without Ca and without Mg. The cells were then incubated for 5-10 minutes in 10 mM Tris-Cl, pH 7.5, 5 mM EDTA before the cells were lifted with a combination of pipetting and scraping, as needed. The cell suspension was collected into centrifuge bottles and homogenized for 30 seconds with a Polytron homogenizer. The suspension was centrifuged for 30 minutes at 32,000×g, 4° C. The supernatant was decanted and the pellet resuspended and homogenized in 50 mM Tris-Cl, pH 7.5, 1 mM EDTA for 10 seconds. The suspension was then centrifuged again for 30 minutes at 32,000×g, 4° C. The supernatant was decanted and the pellet resuspended in 50 mM Tris-Cl, pH 7.5, 1 mM EDTA and briefly homogenized. A Bradford assay (Bio-rad) was performed and the membrane preparation diluted to 2 mg/ml with 50 mM Tris-Cl, pH 7.5, 1 mM EDTA. Aliquots were prepared, and then frozen and stored at −80° C.
hNET, sequence (P23975 whole entry): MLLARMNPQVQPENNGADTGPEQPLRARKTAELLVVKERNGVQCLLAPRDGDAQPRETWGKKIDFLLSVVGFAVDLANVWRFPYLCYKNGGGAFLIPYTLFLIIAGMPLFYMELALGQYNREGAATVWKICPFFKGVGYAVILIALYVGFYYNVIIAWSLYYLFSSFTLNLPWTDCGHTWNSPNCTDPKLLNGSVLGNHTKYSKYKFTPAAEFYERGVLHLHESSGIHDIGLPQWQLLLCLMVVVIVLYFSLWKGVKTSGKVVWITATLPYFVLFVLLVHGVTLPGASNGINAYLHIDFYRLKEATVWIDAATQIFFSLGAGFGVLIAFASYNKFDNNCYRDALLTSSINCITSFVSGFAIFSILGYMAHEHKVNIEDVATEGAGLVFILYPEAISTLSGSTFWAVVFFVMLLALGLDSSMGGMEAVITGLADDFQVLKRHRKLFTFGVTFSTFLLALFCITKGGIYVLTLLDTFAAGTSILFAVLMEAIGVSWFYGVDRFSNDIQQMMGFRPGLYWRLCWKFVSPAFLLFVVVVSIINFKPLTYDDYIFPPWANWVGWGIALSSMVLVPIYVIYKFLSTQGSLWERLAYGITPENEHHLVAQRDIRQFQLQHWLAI
(§2) Compounds were dissolved in 100% DMSO at a concentration 100 times the desired highest assay concentration, serially diluted 1:3 in 100% DMSO, and 1.0 μl/well of each solution was dispensed to a Nunc polypropylene, round bottom, 384-well plate. 100% inhibition is defined with 1.0 μl/well of 10 mM desipramine dissolved in DMSO. 50 μl/well of a 2× membrane preparation (0.4 mg/ml in 50 mM Tris-Cl, pH 7.5, 120 mM NaCl, 5 mM KCl) and 50 μl/well of a 2× radioligand solution (4 nM [^3H]nisoxetine in 50 mM Tris-Cl, pH 7.5, 120 mM NaCl, 5 mM KCl) were added to the well and the reaction incubated for 1 hour at room temperature. The contents of the assay plate were then transferred to a Millipore MultiscreenHTS GF/B filter plate which was pretreated with 0.5% PEI for at least one hour. The plate was vacuum filtered and washed with 7 washes of 100 μl/well 50 mM Tris-Cl, pH 7.5, 120 mM NaCl, 5 mM KCl chilled to 4° C. The filtration and washing were completed in less than 90 seconds. The plates were air-dried overnight, 12 μl/well of MicroScint scintillation fluid added, and the plates counted in a Trilux.
(§3) The raw data was normalized to percent inhibition using control wells defining 0% (DMSO only) and 100% (selective inhibitor) inhibition which were run on each plate. Each plate was run in triplicate, and the concentration response curve thus generated was fit using the four-parameter dose response equation, Y=Bottom+(Top-Bottom)/(1+10^((LogIC50−X)*HillSlope)) in order to determine the IC50 value for each compound. The radioligand concentration chosen for each assay corresponds to the Kd concentration determined through saturation binding analysis for each assay.

Another assay deals with hSERT (Homo sapiens (Human), UniProt P31645). Put plainly: SERT radioligand binding assay ([125I]RTI-55, HEK-293 membranes). The conditions noted are these: (+)-enantiomers; read-out: SERT IC50. The method, then:
as §1, with “The” for “Recombinant HEK-293 cells expressing either the hSERT, hDAT, or hNET proteins were harvested from T-175 flasks as follows. The”
as §2, with “0.4” for “1.0”, “100% inhibition is defined with 1.0 μl/well of 10 mM desipramine dissolved in DMSO. 50 μl/well of a 2× membrane preparation (0.4 mg/ml in 50 mM Tris-Cl, pH 7.5, 120 mM NaCl, 5 mM KCl) and 50 μl/well of a 2× radioligand solution (4 nM [^3H]nisoxetine in 50 mM Tris-Cl, pH 7.5, 120 mM NaCl, 5 mM KCl) were added to the well and the reaction incubated for 1 hour at room temperature.” left out
Each plate was run in triplicate, and the concentration response curve thus generated was fit using the four-parameter dose response equation, Y=Bottom+(Top-Bottom)/(1+10^((LogIC50−X)*HillSlope)) in order to determine the IC50 value for each compound. The radioligand concentration chosen for each assay corresponds to the Kd concentration determined through saturation binding analysis for each assay.

The target of a further assay is hDAT (Homo sapiens (Human), UniProt Q01959). The assay can be described thus: DAT radioligand binding assay ([125I]RTI-55, HEK-293 membranes). The conditions noted are these: (+)-enantiomers; read-out: DAT IC50. The protocol: as §1
hDAT, sequence (Q01959 whole entry): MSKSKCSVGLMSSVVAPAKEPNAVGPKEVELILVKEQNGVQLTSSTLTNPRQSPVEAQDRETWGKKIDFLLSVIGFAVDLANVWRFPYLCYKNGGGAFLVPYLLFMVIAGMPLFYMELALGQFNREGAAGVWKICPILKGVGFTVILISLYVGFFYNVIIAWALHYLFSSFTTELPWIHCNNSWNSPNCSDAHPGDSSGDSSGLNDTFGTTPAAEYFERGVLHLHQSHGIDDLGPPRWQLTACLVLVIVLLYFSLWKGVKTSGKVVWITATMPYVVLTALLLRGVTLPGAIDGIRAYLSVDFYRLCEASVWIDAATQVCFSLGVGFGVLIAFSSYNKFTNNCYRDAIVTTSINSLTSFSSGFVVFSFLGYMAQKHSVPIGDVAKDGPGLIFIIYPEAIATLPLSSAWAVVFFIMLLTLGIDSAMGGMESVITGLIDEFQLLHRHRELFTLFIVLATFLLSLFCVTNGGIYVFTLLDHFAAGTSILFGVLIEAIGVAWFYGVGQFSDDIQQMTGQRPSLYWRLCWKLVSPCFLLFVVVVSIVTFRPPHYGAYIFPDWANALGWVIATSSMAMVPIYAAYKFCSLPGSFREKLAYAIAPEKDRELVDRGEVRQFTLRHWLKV
Compounds were dissolved in 100% DMSO at a concentration 100 times the desired highest assay concentration, serially diluted 1:3 in 100% DMSO, and 0.4 μl/well of each solution was dispensed to a Nunc polypropylene, round bottom, 384-well plate. 100% inhibition is defined with 0.4 μl/well of 1 mM GBR-12935 dissolved in DMSO. 20 ul/well of a 2× membrane preparation (12.5 μg/ml in 30 mM sodium phosphate buffer, pH 7.9 at 4° C.) and 20 μl/well of a 2× radioligand solution ([…] [^125I]RTI-55 in 30 mM sodium phosphate buffer, pH 7.9 at 4° C.) were added to the well and the reaction incubated for 1 hour at room temperature. The contents of the assay plate were then transferred to a Millipore MultiscreenHTS GF/B filter plate which was pretreated with 0.5% PEI for at least one hour. The plate was vacuum-filtered and washed with 7 washes of 100 μl/well 50 mM Tris-Cl, pH 7.5, 120 mM NaCl, 5 mM KCl chilled to 4° C. The filtration and washing were completed in less than 90 seconds. The plates were air-dried overnight, 12 μl/well of MicroScint scintillation fluid added, and the plates counted in a Trilux.
as §3

For the next assay, the system named is NET. Put plainly: Occupancy assay, ex vivo binding in brain tissue, NET. The conditions noted are these: dose 1 mg/kg, time point 3 h. The source says:
(§4) The general procedure for brain tissue collection and transporter occupancy assessment is briefly described as follows. Mice were sacrificed by asphyxiation in CO2, rats by decapitation and dogs by IV injection of euthanasia solution. For mice and rats, after the brains were removed from the skull, the forebrain tissue (removal of the brainstem and cerebellum) was used for SERT, NET, and DAT occupancy assessment. In dogs, the striatum was dissected for DAT occupancy and the remaining forebrain tissue (without the striatum, brainstem, and cerebellum) was used for SERT and NET occupancy assessment. The brain tissues were frozen in chilled isopentane and stored at −80° C. until homogenization.
(§5) The brain tissues were thawed and then homogenized using a polytron homogenizer (Kinematica). Sample aliquots were frozen immediately and stored at −80° C. Protein content was measured for each sample using a Coomassie protein assay kit (Pierce).
(§6) On the day of ex vivo binding for occupancy assessment, frozen sample aliquots were thawed and needle homogenized, and 100 μg of the tissue was incubated for SERT, NET, and DAT binding under assay conditions summarized in Table 2. […] The filters were washed twice with ice-cold incubation buffer, punched into a clear plate prior to the addition of 200 ul scintillation fluid per well. Radioligand was measured using a Wallac Microbeta liquid scintillation counter.
(§7) The specific binding was calculated by subtracting the value of the non-specific binding from that of the total binding in each sample. The percent occupancy was calculated as (1−specific binding in drug treated/specific binding in vehicle treated)×100%. […] Nonlinear regression was performed using GraphPad Prism version 3.00 (GraphPad Software, San Diego, Calif.).

The test system of a further assay is Male Swiss Webster mice. Put plainly: Mouse tail suspension assay. Type of assay: in vivo. The conditions noted are these: mouse tail suspension study, acute administration. The method, then: Male Swiss Webster mice were housed 3-4 per cage in rooms maintained at a constant temperature (21-23° C.) and humidity (50±10%) on a 12-hour light/dark cycle. Animals had ad libitum access to water and food throughout studies. On the day of testing, they were brought into the testing room and allowed to acclimate for one hour.
To begin testing, the tail was attached to a piece of tape which ias then attached to a hook on the ceiling of a sound-attenuated chamber. Immobility was automatically recorded using the Med Associates software. Compounds were administered acutely at a fixed pretreatment interval before session.

A further assay has as its system SERT. The assay can be described thus: Occupancy assay, ex vivo binding in brain tissue, SERT. The conditions noted are these: dose 1 mg/kg, time point 3 h.
From the text: as §4, §5
On the day of ex vivo binding for occupancy assessment, frozen sample aliquots were thawed and needle homogenized, and 100 μg of the tissue was incubated for SERT, NET, and DAT binding under assay conditions summarized in Table 2. After incubation, the reactions were terminated by the addition of ice-cold assay buffer and rapid filtration through a Brandel Cell Harvester using FPXLR-196 filters. The filters were washed twice with ice-cold incubation buffer, punched into a clear plate prior to the addition of 200 ul scintillation fluid per well. Radioligand was measured using a Wallac Microbeta liquid scintillation counter.
The specific binding was calculated by subtracting the value of the non-specific binding from that of the total binding in each sample. The percent occupancy was calculated as (1−specific binding in drug treated/specific binding in vehicle treated)×100%. For estimation of in vivo occupancy EC50 (total plasma concentration of compound producing 50% occupancy), plots of occupancy values versus plasma concentrations were fitted to a one-site binding model using nonlinear regression according to the following equation: % Occupancy=Emax*C/(EC50+C) where Emax is the maximal specific binding, C is the drug concentration, and EC50 is the total plasma concentration required for 50% binding site occupancy. Nonlinear regression was performed using GraphPad Prism version 3.00 (GraphPad Software, San Diego, Calif.).

The next assay concerns DAT. Put plainly: Occupancy assay, ex vivo binding in brain tissue, DAT. The conditions noted are these: dose 1 mg/kg, time point 3 h.
From the text: as §4, §5, §6, §7

hSERT, sequence (P31645 whole entry): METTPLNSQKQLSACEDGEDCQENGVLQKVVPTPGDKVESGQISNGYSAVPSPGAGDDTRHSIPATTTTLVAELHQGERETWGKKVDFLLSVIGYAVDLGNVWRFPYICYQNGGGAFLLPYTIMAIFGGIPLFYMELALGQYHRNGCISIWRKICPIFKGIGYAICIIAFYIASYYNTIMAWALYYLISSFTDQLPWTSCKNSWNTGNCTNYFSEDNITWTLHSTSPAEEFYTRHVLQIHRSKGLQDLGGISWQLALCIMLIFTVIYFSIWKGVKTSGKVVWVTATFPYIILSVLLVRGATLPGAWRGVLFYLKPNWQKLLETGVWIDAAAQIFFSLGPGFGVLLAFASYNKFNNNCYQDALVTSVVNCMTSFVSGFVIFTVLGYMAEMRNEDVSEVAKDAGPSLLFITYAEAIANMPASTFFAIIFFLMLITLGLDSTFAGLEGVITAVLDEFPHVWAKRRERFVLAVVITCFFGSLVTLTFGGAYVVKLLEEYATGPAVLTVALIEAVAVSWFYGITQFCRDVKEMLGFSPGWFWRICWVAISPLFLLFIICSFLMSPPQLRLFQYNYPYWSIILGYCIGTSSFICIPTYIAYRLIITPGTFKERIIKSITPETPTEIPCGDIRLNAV

In general, IC50 refers to the concentration that inhibits the measured activity by half. On to `O=c1ccccn1-c1ccc2c(c1)CNCC2c1ccc(Cl)c(Cl)c1` (stereo not shown) [Example 17, 1-(4-(3,4-dichlorophenyl)-1,2,3,4-tetrahydroisoquinolin-7-yl)pyridin-2(1H)-one], for which the IC50 at hNET amounted to 421 nM; on hSERT, 6.9 nM; at hDAT, 84.7 nM.
Taken in the same sequence, the figures for `O=c1cccnn1-c1ccc2c(c1)CNCC2c1ccc(Cl)c(Cl)c1` (stereo not shown) [Example 18, 2-(4-(3,4-dichlorophenyl)-1,2,3,4-tetrahydroisoquinolin-7-yl)pyridazin-3(2H)-one] were 132 nM, 6.1 nM and 29.9 nM.
Taken in the same sequence, the figures for `O=c1ccc(-c2cc3c(cc2F)C(c2ccc(Cl)c(Cl)c2)CNC3)n[nH]1` (stereo not shown) [Example 22, 6-(4-(3,4-dichlorophenyl)-6-fluoro-1,2,3,4-tetrahydroisoquinolin-7-yl)pyridazin-3(2H)-one] were 63 nM, 39 nM and 37 nM.
Taken in the same sequence, the figures for `CS(=O)(=O)c1cccc(-c2cc3c(cc2F)C(c2ccc(Cl)c(Cl)c2)CNC3)c1` (stereo not shown) [Example 23, 4-(3,4-dichlorophenyl)-6-fluoro-7-(3-(methylsulfonyl)phenyl)-1,2,3,4-tetrahydroisoquinoline] were 283 nM, 83.6 nM and 101 nM.
On to `NC(=O)c1ccc(-c2cc3c(cc2F)C(c2ccc(Cl)c(Cl)c2)CNC3)cc1` (stereo not shown) [Example 26, 4-(4-(3,4-dichlorophenyl)-6-fluoro-1,2,3,4-tetrahydroisoquinolin-7-yl)benzamide], for which the IC50 on hNET came out at 23.3 nM; at hSERT, 24.5 nM; on hDAT it was 5.8 nM.
Taken in the same sequence, the figures for `NC(=O)c1ccc(-c2cc3c(cc2F)C(c2ccc(Cl)cc2)CNC3)cc1` (stereo not shown) [Example 30, 4-(4-(4-chlorophenyl)-6-fluoro-1,2,3,4-tetrahydroisoquinolin-7-yl)benzamide] were 215 nM, 101 nM and 24.5 nM.
For `Clc1ccc(C2CNCc3cc(-c4ccc5ncnn5c4)ccc32)cc1Cl` (stereo not shown) [Example 36, 7-([1,2,4]triazolo[1,5-a]pyridin-6-yl)-4-(3,4-dichlorophenyl)-1,2,3,4-tetrahydroisoquinoline], in the assay with NET, the “NET Occupancy %” value is given as 11%. The molecule further displayed a minimum effective dose in the assay on Male Swiss Webster mice of 10 mg/kg. Moreover, the “SERT Occupancy %” value in the assay on SERT is on record as 75%. For the same molecule, the “DAT Occupancy %” value with DAT was found to be 26%.

Source of the values: patent US9034899B2, “Aryl, heteroaryl, and heterocycle substituted tetrahydroisoquinolines and use thereof” (Albany Molecular Research, Inc., priority 2009, dated 2015).
